Experimental findings from ChEMBL document CHEMBL1158665, “Antipoliovirus structure-activity relationships of some aporphine alkaloids” (J Nat Prod, 1998) are described below.

Structures can show the parent of a compound that is named as a salt.

Data set [1] in a line: Cytotoxicity against african green monkey Vero cells assessed as drug concentration at which no cellular alteration was microscopically detected. The format is cell-based. To be noted: chlorocebus sabaeus, read-out: MTC.
The nature of data set [2]: Cytotoxicity against african green monkey Vero cells. In kind it is cell-based. The following applies: chlorocebus sabaeus.
Data set [3] in a line: Selectivity index, ratio of CC50 for african green monkey Vero cells to ED50 for Poliovirus 2 Sabin 2. The format is toxicity, cell-based.
Data set [4] has as its system Poliovirus 2. Put plainly: Antiviral activity against Poliovirus 2 Sabin 2 infected in african green monkey Vero cells at 0.001 multiplicity of infection assessed as inhibition of virus-induced cytopathogenicity. In kind it is functional. To be noted: Enterovirus C, Sabin 2, Vero; read-out: ED50 (the source's name). On the technique in general: Protection from cytopathic effect is a common read-out in antiviral testing.

Data set [5] concerns Poliovirus 2. Put plainly: Antiviral activity against Poliovirus 2 Sabin 2 in african green monkey Vero cells assessed as log reduction in virus titers after at 0.01 multiple round of replication at their respective maximum tolerated concentration after 32 hrs. The format is functional.
For data set [6], the system named is Poliovirus 2. Put plainly: Antiviral activity against Poliovirus 2 Sabin 2 in african green monkey Vero cells assessed as log reduction in virus titers after at 0.001 multiple round of replication at their respective half the maximum tolerated concentration after 32 hrs. The format is functional.
In data set [7] the test system is Poliovirus 2. Description: Antiviral activity against Poliovirus 2 Sabin 2 in african green monkey Vero cells assessed as log reduction in virus titers after at 0.1 multiple round of replication at their respective maximum tolerated concentration after 32 hrs. The format is functional.
For data set [8], the system named is Poliovirus 2. Put plainly: Antiviral activity against Poliovirus 2 Sabin 2 in african green monkey Vero cells assessed as log reduction in virus titers after at 0.001 multiple round of replication at their respective maximum tolerated concentration after 32 hrs. The format is functional.
For data set [9], the system named is Poliovirus 2. Put plainly: Antiviral activity against Poliovirus 2 Sabin 2 in african green monkey Vero cells assessed as log reduction in virus titers after at 0.01 multiple round of replication at their respective half the maximum tolerated concentration after 32 hrs. The format is functional.
Data set [10] relates to Poliovirus 2. Put plainly: Antiviral activity against Poliovirus 2 Sabin 2 in african green monkey Vero cells assessed as log reduction in virus titers after at 0.1 multiple round of replication at their respective half of maximum tolerated concentration after 32 hrs. In kind it is functional.

Consider `COc1cc2c(cc1O)C[C@@H]1NCCc3cc4c(c-2c31)OCO4` [ACTINODAPHNINE], for which the MNTC in data set [1] was found to be 95 µM. In addition, it took 107 µM to reach half-maximal cytotoxicity in [2] (CC50).
As to `COc1cc2c(cc1O)C[C@@H]1NCCc3cc(O)c(OC)c-2c31` [NORBOLDINE], the selectivity ratio in data set [3] is 1.5. The EC50 in the data set with Poliovirus 2 [4] came to 62 µM. Further, the MNTC in data set [1] was 62 µM. Moreover, in data set [2], the CC50 (usually the concentration that lowers cell viability or growth by half) was determined as 95 µM.
As for `COc1cc2c(cc1O)C[C@H]1c3c(cc4c(c3-2)OCO4)CCN1C` [CASSYTHICINE], the MNTC in data set [1] came to 31 µM. In [2], the CC50 stood at 47 µM.
As to `O=C1c2ccccc2-c2c3c(cc4ccnc1c24)OCO3` [LIRIODENINE], the MNTC in data set [1] is 31 µM. The same compound gave a CC50 in [2] of 48 µM.
In the case of `COc1cc2c(cc1O)C[C@H]1c3c(cc(O)c(OC)c3-2)CCN1C` [BOLDINE], the selectivity ratio in data set [3] turned out to be 2. Moreover, the EC50 in the data set with Poliovirus 2 [4] is 125 µM. Moreover, the MNTC in data set [1] was determined as 125 µM. The compound also gave a CC50 in [2] of 250 µM.
On to `COc1cc2c(cc1OC)-c1c(OC)c(OC)cc3c1[C@H](C2)N(C)CC3.O=C(O)/C=C/C(=O)O` [GLAUCINE FUMARATE], for which, in data set [3], the selectivity ratio worked out at 15.8. The Activity with Poliovirus 2 [5] is 1.5; with Poliovirus 2 [6], 1.5; with Poliovirus 2 [7], 1; with Poliovirus 2 [8], 3; in the data set on Poliovirus 2 [9], 1; in the data set with Poliovirus 2 [10], 0.5. In the data set on Poliovirus 2 [4], the EC50 was 9 µM. The MNTC in [1] is 62 µM. This compound returned a CC50 in data set [2] of 142 µM.
As to `COc1cc2c3c(c1OC)-c1ccccc1C[C@H]3N(C)CC2.Cl` [NUCIFERINE HYDROCHLORIDE], the selectivity ratio in data set [3] came out at 16.7. Besides, the Activity with Poliovirus 2 [5] was 1; in the data set with Poliovirus 2 [6], 0.5; in the data set with Poliovirus 2 [7], 1; with Poliovirus 2 [8], 2; with Poliovirus 2 [9] it was 0.5; with Poliovirus 2 [10] it was 0.5. In addition, the EC50 in the data set on Poliovirus 2 [4] turned out to be 26 µM. Moreover, the MNTC in data set [1] came to 125 µM. Besides, the CC50 in [2] worked out at 435 µM.
For the compound `CO[C@H]1c2ccccc2-c2c3c(cc4c2[C@@H]1N(C)C[C@@H]4O)OCO3` [PACHYSTAUDINE], the selectivity ratio in data set [3] came out at 2.2. In addition, the figures for the Activity with Poliovirus 2 [5], with Poliovirus 2 [7] and with Poliovirus 2 [8] were 0.5, 0 and 0.5, respectively. Besides, the EC50 in the data set with Poliovirus 2 [4] was 31 µM. The MNTC in [1] was found to be 62 µM. Further, the CC50 in data set [2] turned out to be 68 µM.
On to `COc1cc2c(cc1O)C[C@H]1c3c(cc(OC)c(O)c3-2)CCN1C.Cl` [ISOBOLDINE HYDROCHLORIDE], for which the selectivity ratio in data set [3] turned out to be 14.5. The Activity stood at 1.5 in the data set with Poliovirus 2 [5]; 1.5 with Poliovirus 2 [6]; 1.5 with Poliovirus 2 [7]; 2.5 in the data set with Poliovirus 2 [8]; 1 with Poliovirus 2 [9]; 1 with Poliovirus 2 [10]. In addition, the EC50 with Poliovirus 2 [4] came to 15 µM. In addition, the MNTC in [1] came to 125 µM. In addition, it took 217 µM to reach half-maximal cytotoxicity in data set [2] (CC50).
Regarding `CO[C@H]1c2ccccc2-c2c3c(cc4c2[C@@H]1NCC4)OCO3` [PACHYPODANTINE], the MNTC in data set [1] was determined as 20 µM. In addition, in [2], the cytotoxic concentration (CC50) amounted to 25 µM.
Take `COc1cc2c(cc1O)C[C@H]1c3c(cc(OC)c(OC)c3-2)CCN1C`: in data set [3], the selectivity ratio was determined as 16.7. The Activity with Poliovirus 2 [5] is reported as 1.5; with Poliovirus 2 [6] it was 1; with Poliovirus 2 [7], 1; with Poliovirus 2 [8] it was 2.5; with Poliovirus 2 [9], 1; with Poliovirus 2 [10], 0.5. In addition, the EC50 with Poliovirus 2 [4] turned out to be 15 µM. Besides, the MNTC in [1] stood at 125 µM. In [2], this compound returned a CC50 of 250 µM.
On to `COc1c2c3c(c4c1OCO4)-c1ccccc1[C@H](O)[C@H]3N(C)CC2` [GUATTERINE], for which the selectivity ratio in data set [3] came out at 1.7. Moreover, the EC50 with Poliovirus 2 [4] was 62 µM. The MNTC in data set [1] was determined as 62 µM. Besides, the CC50 in [2] was found to be 107 µM.
As for `COc1cc2c(cc1O)C[C@@H]1NCCc3cc(OC)c(OC)c-2c31` [LAUROTETANINE], the selectivity ratio in data set [3] is 5.3. Moreover, the Activity in the data set on Poliovirus 2 [5] is given as 1.5; in the data set with Poliovirus 2 [6], 1; in the data set with Poliovirus 2 [7], 1; in the data set with Poliovirus 2 [8], 1.5; in the data set with Poliovirus 2 [9], 1; in the data set on Poliovirus 2 [10], 0.5. Further, the EC50 with Poliovirus 2 [4] was 31 µM. Moreover, the MNTC in data set [1] worked out at 62 µM. Moreover, in data set [2], the half-maximal cytotoxic concentration (CC50) worked out at 165 µM.
Turning to `COc1ccc2c(c1)[C@H](O)[C@@H]1c3c(cc4c(c3-2)OCO4)CCN1C` [OLIVERIDINE], in [1], the MNTC was determined as 5 µM. In [2], this compound displayed a half-maximal cytotoxic concentration (CC50) of 7 µM.
For `COc1ccc2c(c1)[C@H](OC)[C@@H]1c3c(cc4c(c3-2)OCO4)CCN1C` [OLIVERINE HCL] the same measures were 7 µM and 9 µM.
Turning to `COc1cccc2c1C(=O)c1nccc3cc4c(c-2c13)OCO4` [OXOSTEPHANINE], the MNTC in [1] amounted to 15 µM. The compound further yielded a half-maximal cytotoxic concentration (CC50) in data set [2] of 28 µM.
Regarding `COc1cc2ccnc3c2c(c1OC)-c1ccccc1C3=O` [LYSICAMINE], the MNTC in [1] was 250 µM. This compound registered a CC50 in [2] of 500 µM.
With `COc1cc2c(cc1OC)-c1c(OC)c(OC)cc3c1[C@H](C2)N(C(C)=O)CC3`, in data set [3], the selectivity ratio was found to be 6.8. The Activity was determined as 1.5 in the data set with Poliovirus 2 [5]; 1 in the data set with Poliovirus 2 [6]; 1.5 with Poliovirus 2 [7]; 1.5 in the data set on Poliovirus 2 [8]; 0.5 with Poliovirus 2 [9]; 0.5 in the data set on Poliovirus 2 [10]. Further, in the data set on Poliovirus 2 [4], the EC50 stood at 50 µM. Besides, the MNTC in [1] is 250 µM. The same compound showed a CC50 in data set [2] of 342 µM.
